According to patent US20230061116A1, “TARGETING PAR1 AND PAR2 TO REGULATE LIPID AND CHOLESTEROL ABUNDANCE” (Mayo Foundation for Medical Education and Research, priority 2020, published 2023):

What was measured:
[1] = test system: primary mouse cortical neurons; assay: Neurite outgrowth (TUJ1+ area) in primary cortical neurons; type: cell-based; conditions: co-treatment with subtherapeutic BDNF; 24 and 72 hours of treatment (FIG. 12)
Description: FIG. 12 contains a series of images showing that inhibition of PAR1 signaling accelerates neurite outgrowth in primary mouse cortical neurons. Murine neurons were cultured for 24 hours before addition of the PAR1 inhibitor Vorapaxar, subtherapeutic growth factor BDNF, or both. […] Neurite outgrowth was quantified by staining for TUJI (a cytoskeletal protein present in both axons and dendrites) and measuring TUJI+ area (the average of 5 randomly selected fields per well, 6 wells per treatment). Production of lipids and cholesterol, major constituents of neuronal membranes, was required to grow both axons and dendrites. Results are plotted in the graphs in the right panel (*P<0,05 SNK, n=6 all groups, both timepoints). […] Murine neurons were cultured for 24 hours before addition of the PAR1 inhibitor Vorapaxar, subtherapeutic growth factor BDNF, or both. […] Neurite outgrowth was quantified by staining for TUJ1 (a cytoskeletal protein present in both axons and dendrites) and measuring TUJ1+ area (the average of 5 randomly selected fields per well, 6 wells per treatment). Production of lipids and cholesterol, major constituents of neuronal membranes, was required to grow both axons and dendrites.

[2] = test system: primary mouse cortical neurons; assay: Synaptogenesis (Homer puncta per TUJ1+ area) in primary cortical neurons; type: cell-based; conditions: co-treatment with subtherapeutic BDNF; 24 and 72 hours of treatment (FIG. 13)
Description: FIG. 13 contains images showing that inhibition of PAR1 signaling accelerates synaptogenesis in primary mouse cortical neurons. Murine neurons were cultured in vitro for 24 hours before addition of the PAR1 inhibitor Vorapaxar, subtherapeutic growth factor BDNF, Or both. […] Synapse density was quantified by staining for Homer, a scaffold protein concentrated at the post-synaptic densities by counting puncta in ImageJ. Synapse counts were normalized by total neurite area (TUJ1+ area) to determine the density of synapses on neurites (average of 5 randomly selected fields per well, 6 wells per treatment). Results are plotted in the graphs in the right panel *P<0.05 SNK, n=6 all groups, both timepoints). Inhibition of PAR1 signaling also accelerated synaptogenesis in primary mouse cortical neurons (FIG. 13). Murine neurons were cultured in vitro for 24 hours before addition of the PAR1 inhibitor Vorapaxar, subtherapeutic growth factor BDNF, or both. […] Synapse density was quantified by staining for Homer, a scaffold protein concentrated at the post-synaptic densities by counting puncta in ImageJ. Synapse counts were normalized by total neurite area (TUJ1+ area) to determine the density of synapses on neurites (average of 5 randomly selected fields per well, 6 wells per treatment).

HMGCS1 = HMGCS1 expression in primary cortical neurons (real-time quantitative PCR); type: cell-based, murine
Description: FIG. 3 is a graph plotting HMGCS1 expression in cultures of primary cortical neurons treated with the PAR1 small molecule inhibitor Vorapaxar (100 nM) or vehicle control for 72 hours.
Expression of HMGCS1, an enzyme responsible for production of HMGCoA for the rate-limiting step in cholesterol biosynthesis, was quantified by real-time quantitative PCR.
HMGCS1 is responsible for production of HMGCoA for the rate-limiting step in cholesterol biosynthesis.

Murine neurons = assay: Growth of new neurites after transection (scratch) injury in vitro; type: cell-based, mouse; conditions: co-treatment with subtherapeutic BDNF, added following scratch injury (FIG. 14)
Description: FIG. 14 contains a series of images showing that inhibition of PAR1 signaling accelerates growth of new neurites following transection injury in vitro. Murine neurons were cultured in vitro to confluence, and then a large wound was created by mechanically scratching the center of each field. The PAR1 inhibitor Vorapaxar, subtherapeutic growth factor BDNF, or both were added following injury. […] Results are plotted in the graph in the right panel (*P<0.05 SNK, n=6 all groups). Inhibition of PAR1 signaling accelerated growth of new neurites following transection injury in vitro (FIG. 14). Murine neurons were cultured in vitro to confluence, and then a large wound was created by mechanically scratching the center of each field. The PAR1 inhibitor Vorapaxar, subtherapeutic growth factor […], or both were added following injury.

SH-SY5Y cells = assay: Cellular cholesterol content, amplex red colorimetric assay; type: cell-based, human; conditions: 100 nM, 72 hours (FIG. 22)
Description: FIG. 22 is a graph plotting human neuronal (SH-SY5Y) cells grown in the presence of the small molecule PAR1 inhibitor, Vorapaxar (“Vora,” at 100 nM) or control for 72 hours. […] Cholesterol content was quantified by the amplex red colorimetric assay. Finally, cholesterol levels were evaluated in a human neuronal cell line (SH-SY5Y cells) grown in the presence of the small molecule PAR1 inhibitor, Vorapaxar, for 72 hours.

[3] = test system: primary mouse cortical neurons; assay: Neurite outgrowth under statin inhibition of cholesterol production; type: cell-based; conditions: statin-treated cultures
From the text: Neurite outgrowth was quantified by staining for TUJ1 (a cytoskeletal protein present in both axons and dendrites) and measuring TUJ1+ area (the average of 5 randomly selected fields per well, 6 wells per treatment). *P<0.05 SNK, n=6 all groups.
Neurite outgrowth was quantified by staining for TUJ1 (a cytoskeletal protein present in both axons and dendrites) and measuring TUJ1+ area (the average of 5 randomly selected fields per well, 6 wells per treatment).

Molecule | production of neurites (TUJ1+ area) [1] | production of synaptic densities (Homer puncta normalized by TUJ1+ area) [2] | HMGCS1 expression (HMGCS1; primary cortical neurons, 100 nM, 72 hours, vs vehicle-treated controls (FIG. 3)) | expression of HMGCS1 (real-time quantitative PCR) (HMGCS1; primary murine cortical neurons, with or without co-treatment with BDNF (FIG. 15)) | growth of new neurites through the injury zone (TUJ1+ area in the scratch) (Murine neurons) | cellular cholesterol vs untreated cells (SH-SY5Y cells) | recovery of neurite production (TUJ1+ area) from statin treatment ([3]; agent alone (FIG. 16)) | recovery of neurite production (TUJ1+ area) from statin treatment ([3]; co-treatment of PAR1 inhibitor with subtherapeutic BDNF (FIG. 16))
CCOC(=O)N[C@@H]1CC[C@@H]2[C@@H](C1)C[C@H]1C(=O)O[C@H](C)[C@H]1[C@H]2/C=C/c1ccc(-c2cccc(F)c2)cn1 [Vorapaxar] | potentiated the effect of BDNF, significantly increasing production of neurites | potentiated the effect of BDNF, significantly increasing production of synaptic densities | promoted increases in HMGCS1 expression | increased the expression of HMGCS1 | potentiated the effect of BDNF, significantly increasing growth of new neurites through the injury zone | more than twice the amount of cellular cholesterol | did not result in recovery of neurite production | partially rescued neurite production from statin treatment
BDNF: subtherapeutic growth factor BDNF (protein, UniProt P23560 19-247, looked up) Neurotrophic factor BDNF …: APMKEANIRGQGGLAYPGVRTHGTLESVNGPKAGSRGLTSLADTFEHVIEELLDEDQKVRPNEENNKDADLYTSRVMLSSQVPLEPPLLFLLEEYKNYLDAANMSMRVRRHSDPARRGELSVCDSISEWVTAADKKTAVDMSGGTVTVLEKVPVSKGQLKQYFYETKCNPMGYTKEGCRGIDKRHWNSQCRTTQSYVRALTMDSKKRIGWRFIRIDTSCVCTLTIKRGR |  |  |  |  |  |  | did not result in recovery of neurite production | 
